The results in this text go back to ChEMBL document CHEMBL6092162, “Identification of novel and potent triazoles targeting CYP51 for antifungal: Design, synthesis, and biological study” (Eur J Med Chem, 2024).

Values after ≈ are worked out from the molar mass of the structure shown.

In one assay the test system is Nakaseomyces glabratus. Description: Antifungal activity against Candida glabrata assessed as inhibition of fungal growth by CLSI M27-A3 guidelines based method. In kind it is functional.
Details: not given
In general, MIC80 refers to the lowest concentration that inhibits either 80% of growth or 80% of the strains tested, depending on the study. In the case of `CC(C)C(=O)N1CCN(c2ccc(CN(C)CC(O)(Cn3cncn3)c3ccc(F)cc3F)cc2)CC1` (stereo not drawn), the MIC80 was determined as 16 µg/mL (≈ 31.2 µM).

Turning to `CN(Cc1ccc(N2CCN(Cc3ccc(C(C)(C)C)cc3)CC2)cc1)CC(O)(Cn1cncn1)c1ccc(F)cc1F` (stereo not drawn), the MIC80 is 0.1 µg/mL (≈ 0.17 µM).

As to `CN(Cc1ccc(N2CCN(Cc3ccc(Cl)cc3)CC2)cc1)CC(O)(Cn1cncn1)c1ccc(F)cc1F` (stereo not drawn), the MIC80 was 0.8 µg/mL (≈ 1.41 µM).

The subject of a further assay is Candida albicans. As to the kind of experiment: Antifungal activity against fluconazole-resistant Candida albicans clinical isolate 100 assessed as inhibition of fungal growth by CLSI M27-A3 guidelines based method. In kind it is functional.
Details: not given
In the case of `CN(Cc1ccc(N2CCN(Cc3ccc(C(C)(C)C)cc3)CC2)cc1)CC(O)(Cn1cncn1)c1ccc(F)cc1F` (stereo not drawn), the MIC80 is 8 µg/mL (≈ 13.6 µM).

The test system of the next assay is Pichia kudriavzevii. Description: Antifungal activity against Candida krusei GIM 2.1 assessed as inhibition of fungal growth by CLSI M27-A3 guidelines based method. In kind it is functional.
Details: not given
As to `CC(C)C(=O)N1CCN(c2ccc(CN(C)CC(O)(Cn3cncn3)c3ccc(F)cc3F)cc2)CC1` (stereo not drawn), the MIC80 was found to be 16 µg/mL (≈ 31.2 µM).

Regarding `CN(Cc1ccc(N2CCN(Cc3ccc(Cl)cc3)CC2)cc1)CC(O)(Cn1cncn1)c1ccc(F)cc1F` (stereo not drawn), the MIC80 was found to be 0.1 µg/mL (≈ 0.176 µM).

The subject of another assay is Candida albicans. As to the kind of experiment: Antifungal activity against fluconazole-resistant Candida albicans clinical isolate 632 assessed as inhibition of fungal growth by CLSI M27-A3 guidelines based method.
Details: not given
In kind it is functional.
For the compound `CN(Cc1ccc(N2CCN(Cc3ccc(C(C)(C)C)cc3)CC2)cc1)CC(O)(Cn1cncn1)c1ccc(F)cc1F` (stereo not drawn), the MIC80 worked out at 16 µg/mL (≈ 27.2 µM).

For another assay, the system named is Candida albicans. Description: Antifungal activity against fluconazole-resistant Candida albicans CaR assessed as inhibition of fungal growth by CLSI M27-A3 guidelines based method. The format is functional.
Details: not given
On to `CN(Cc1ccc(N2CCN(Cc3ccc(C(C)(C)C)cc3)CC2)cc1)CC(O)(Cn1cncn1)c1ccc(F)cc1F` (stereo not drawn), for which the MIC80 came out at 0.063 µg/mL (≈ 0.107 µM).

The test system of a further assay is Candida albicans. As to the kind of experiment: Antifungal activity against fluconazole-resistant Candida albicans clinical isolate 103 assessed as inhibition of fungal growth by CLSI M27-A3 guidelines based method. In kind it is functional.
Details: not given
With `CN(Cc1ccc(N2CCN(Cc3ccc(C(C)(C)C)cc3)CC2)cc1)CC(O)(Cn1cncn1)c1ccc(F)cc1F` (stereo not drawn), the MIC80 turned out to be 8 µg/mL (≈ 13.6 µM).

Another assay has as its system Candida albicans. Description: Antifungal activity against fluconazole-resistant Candida albicans clinical isolate 904 assessed as inhibition of fungal growth by CLSI M27-A3 guidelines based method.
Details: not given
The format is functional.
As to `CN(Cc1ccc(N2CCN(Cc3ccc(C(C)(C)C)cc3)CC2)cc1)CC(O)(Cn1cncn1)c1ccc(F)cc1F` (stereo not drawn), the MIC80 came out at 32 µg/mL (≈ 54.4 µM).

In a further assay the test system is Candida albicans. As to the kind of experiment: Antifungal activity against fluconazole-resistant Candida albicans clinical isolate 901 assessed as inhibition of fungal growth by CLSI M27-A3 guidelines based method. The format is functional.
Details: not given
On to `CN(Cc1ccc(N2CCN(Cc3ccc(C(C)(C)C)cc3)CC2)cc1)CC(O)(Cn1cncn1)c1ccc(F)cc1F` (stereo not drawn), for which the MIC80 is over 64 µg/mL.

The next assay concerns Candida albicans. As to the kind of experiment: Antifungal activity against Candida albicans SC5314 assessed as inhibition of fungal growth by CLSI M27-A3 guidelines based method. The format is functional.
Details: not given
For the compound `CC(C)C(=O)N1CCN(c2ccc(CN(C)CC(O)(Cn3cncn3)c3ccc(F)cc3F)cc2)CC1` (stereo not drawn), the MIC80 amounted to 0.25 µg/mL (≈ 0.488 µM).

With `CN(Cc1ccc(N2CCN(Cc3ccc(C(C)(C)C)cc3)CC2)cc1)CC(O)(Cn1cncn1)c1ccc(F)cc1F` (stereo not drawn), the MIC80 is 0.013 µg/mL (≈ 0.0221 µM).

Regarding `CN(Cc1ccc(N2CCN(Cc3ccc(Cl)cc3)CC2)cc1)CC(O)(Cn1cncn1)c1ccc(F)cc1F` (stereo not drawn), the MIC80 worked out at 0.05 µg/mL (≈ 0.0882 µM).

The next assay deals with Candida parapsilosis. Description: Antifungal activity against Candida parapsilosis GIM 2.190 assessed as inhibition of fungal growth by CLSI M27-A3 guidelines based method. The format is functional. The following applies: Lodderomyces parapsilosis.
Consider `CC(C)C(=O)N1CCN(c2ccc(CN(C)CC(O)(Cn3cncn3)c3ccc(F)cc3F)cc2)CC1` (stereo not drawn), for which the MIC80 worked out at 0.25 µg/mL (≈ 0.488 µM).

For the compound `CN(Cc1ccc(N2CCN(Cc3ccc(C(C)(C)C)cc3)CC2)cc1)CC(O)(Cn1cncn1)c1ccc(F)cc1F` (stereo not drawn), the MIC80 stood at 0.006 µg/mL (≈ 0.0102 µM).

Take `CN(Cc1ccc(N2CCN(Cc3ccc(Cl)cc3)CC2)cc1)CC(O)(Cn1cncn1)c1ccc(F)cc1F` (stereo not drawn): the MIC80 came to 0.1 µg/mL (≈ 0.176 µM).

The subject of a further assay is Candida albicans. Description: Antifungal activity against fluconazole and iodiconazole resistant Candida albicans clinical isolate 17# assessed as inhibition of fungal growth by CLSI M27-A3 guidelines based method.
Details: not given
In kind it is functional.
In the case of `CN(Cc1ccc(N2CCN(Cc3ccc(C(C)(C)C)cc3)CC2)cc1)CC(O)(Cn1cncn1)c1ccc(F)cc1F` (stereo not drawn), the MIC80 is 0.125 µg/mL (≈ 0.212 µM).

In another assay the test system is Candida tropicalis. As to the kind of experiment: Antifungal activity against Candida tropicalis GIM 2.183 assessed as inhibition of fungal growth by CLSI M27-A3 guidelines based method. The format is functional.
Details: not given
In the case of `CC(C)C(=O)N1CCN(c2ccc(CN(C)CC(O)(Cn3cncn3)c3ccc(F)cc3F)cc2)CC1` (stereo not drawn), the MIC80 is 0.5 µg/mL (≈ 0.975 µM).

`CN(Cc1ccc(N2CCN(Cc3ccc(C(C)(C)C)cc3)CC2)cc1)CC(O)(Cn1cncn1)c1ccc(F)cc1F` (stereo not drawn): the MIC80 turned out to be 0.013 µg/mL (≈ 0.0221 µM).

Take `CN(Cc1ccc(N2CCN(Cc3ccc(Cl)cc3)CC2)cc1)CC(O)(Cn1cncn1)c1ccc(F)cc1F` (stereo not drawn): the MIC80 worked out at 0.05 µg/mL (≈ 0.0882 µM).

The test system of the next assay is Cryptococcus neoformans. As to the kind of experiment: Antifungal activity against Cryptococcus neoformans CGMCC 2.3161 assessed as inhibition of fungal growth by CLSI M27-A3 guidelines based method.
Details: not given
The format is functional.
Regarding `CC(C)C(=O)N1CCN(c2ccc(CN(C)CC(O)(Cn3cncn3)c3ccc(F)cc3F)cc2)CC1` (stereo not drawn), the MIC80 came to 16 µg/mL (≈ 31.2 µM).

Take `CN(Cc1ccc(N2CCN(Cc3ccc(C(C)(C)C)cc3)CC2)cc1)CC(O)(Cn1cncn1)c1ccc(F)cc1F` (stereo not drawn): the MIC80 turned out to be 0.1 µg/mL (≈ 0.17 µM).

Consider `CN(Cc1ccc(N2CCN(Cc3ccc(Cl)cc3)CC2)cc1)CC(O)(Cn1cncn1)c1ccc(F)cc1F` (stereo not drawn), for which the MIC80 is 0.8 µg/mL (≈ 1.41 µM).

In another assay the test system is Candida albicans. As to the kind of experiment: Antifungal activity against Candida albicans GIM 2.194 assessed as inhibition of fungal growth by CLSI M27-A3 guidelines based method.
Details: not given
In kind it is functional.
With `CC(C)C(=O)N1CCN(c2ccc(CN(C)CC(O)(Cn3cncn3)c3ccc(F)cc3F)cc2)CC1` (stereo not drawn), the MIC80 is 1 µg/mL (≈ 1.95 µM).

Regarding `CN(Cc1ccc(N2CCN(Cc3ccc(C(C)(C)C)cc3)CC2)cc1)CC(O)(Cn1cncn1)c1ccc(F)cc1F` (stereo not drawn), the MIC80 was 0.006 µg/mL (≈ 0.0102 µM).

As to `CN(Cc1ccc(N2CCN(Cc3ccc(Cl)cc3)CC2)cc1)CC(O)(Cn1cncn1)c1ccc(F)cc1F` (stereo not drawn), the MIC80 amounted to 0.05 µg/mL (≈ 0.0882 µM).

Another assay has as its system Candida albicans. As to the kind of experiment: Antifungal activity against fluconazole-resistant Candida albicans clinical isolate 311 assessed as inhibition of fungal growth by CLSI M27-A3 guidelines based method. The format is functional.
Details: not given
Turning to `CN(Cc1ccc(N2CCN(Cc3ccc(C(C)(C)C)cc3)CC2)cc1)CC(O)(Cn1cncn1)c1ccc(F)cc1F` (stereo not drawn), the MIC80 amounted to 8 µg/mL (≈ 13.6 µM).
